Source: ChEMBL document CHEMBL1806489, “Synthesis and biological evaluation of novel F-18 labeled pyrazolo[1,5-a]pyrimidine derivatives: potential PET imaging agents for tumor detection” (Bioorg Med Chem Lett, 2011)

How the values were obtained:
Format in all cases: ADME, cell-based
CCRF S-180 [1] = assay: Cellular uptake in mouse S180 cells after 30 mins; conditions: ccrf s-180, 0.5 h
CCRF S-180 [2] = assay: Cellular uptake in mouse S180 cells after 60 mins; conditions: ccrf s-180, 1 h
CCRF S-180 [3] = assay: Cellular uptake in mouse S180 cells relative to [18F]FDG

SMILES	Drug uptake (CCRF S-180 [1])	Drug uptake (CCRF S-180 [2]) [%]	Drug uptake (CCRF S-180 [3]) [%]
O=C[C@H]([18F])[C@@H](O)[C@H](O)[C@H](O)CO	Active	9	–
N[C@@H](Cc1ccc(OCC[18F])cc1)C(=O)O [FLORETYROSINE F18]	–	9	< 7
